Assay results published in US20250049929A1, “NOVEL TETRAHYDROQUINOLINES AND PROTEOLYSIS TARGETING CHIMERA (PROTACS) COMPRISING THEM AS DEGRADERS OF SMARCA” (Boehringer Ingelheim International GmbH, priority 2021, published 2025).

Target: T1, SMARCA2 (Homo sapiens, UniProt P51531)
T1 construct: endogenous in cells; host or cells: RKO cells (CRL-2577, ATCC)
Experiment: SMARCA2 degradation analysis by imaging in RKO cells (DC50 A2)
Assay type: cell-based
Conditions: tables 69, 70, 73, 76-78
Protocol: (§1) Determination of SMARCA2 and SMARCA4 Degradation (DC50 A2 and A4 [nM])
(§2) Protein Degradation Assays for SMARCA2 and SMARCA4
(§3) For degradation analysis by imaging, 1250 RKO cells (CRL-2577, ATCC) per well were seeded into 60 μL DMEM (Sigma Aldrich) supplemented with 10% FBS (Hyclone) in 384-well flat bottom plates (CellCarrier Ultra, Perkin Elmer) and incubated at 37° C. and 5% CO2 in a humidified atmosphere overnight. Compounds were added the next day using an Access Labcyte Workstation with a Labcyte Echo 550 or 555 acoustic dispenser and incubated with the cells for 4 or 24 h. Cells were fixed by adding 25 μL fixation buffer (7.4% formaldehyde (Sigma Aldrich F8775), 0.2% Triton TX100 (Sigma Aldrich F93443) in PBS) for 15 minutes at room temperature. After aspirating the fixing solution, the cells were washed once with 25 μL PBS and 25 μL of Blocking Buffer (10% Goat Serum in PBS) were added to each well and incubated for 30 minutes. Cells were washed with PBS and incubated with 20 μL mouse anti-Smarca4 (BRG1) antibody (Cell Signaling #52251) or rabbit anti-Smarca2 (BRM) antibody (Sigma Aldrich HPA029981) in blocking solution (PBS with 10% FCS) for ca. 2-4 h at RT. For detection of the nuclei, 25 μL of 5 μg/mL Hoechst 33342 (stock 10 mg/mL in H2O; Invitrogen H1399) were added together with Alexa Fluor 647 goat anti-mouse IgG (Invitrogen A-21235) or Alexa Fluor 488 goat anti-rabbit IgG (Invitrogen A-11034) in blocking solution and incubated for 60 min at RT. The cell layer was washed with 25 μL PBS, the wells were filled with 25 μL PBS and the plates sealed with an adhesive sheet. The mean intensity at 488 or 647 nm in the nucleus was measured using an Opera Phenix Plus High-Content Screening System (Perkin Elmer), values were normalized to the background and DMSO control and DC50 values were calculated and analyzed using a four-parametric logistic model.

T1 sequence (P51531 whole entry): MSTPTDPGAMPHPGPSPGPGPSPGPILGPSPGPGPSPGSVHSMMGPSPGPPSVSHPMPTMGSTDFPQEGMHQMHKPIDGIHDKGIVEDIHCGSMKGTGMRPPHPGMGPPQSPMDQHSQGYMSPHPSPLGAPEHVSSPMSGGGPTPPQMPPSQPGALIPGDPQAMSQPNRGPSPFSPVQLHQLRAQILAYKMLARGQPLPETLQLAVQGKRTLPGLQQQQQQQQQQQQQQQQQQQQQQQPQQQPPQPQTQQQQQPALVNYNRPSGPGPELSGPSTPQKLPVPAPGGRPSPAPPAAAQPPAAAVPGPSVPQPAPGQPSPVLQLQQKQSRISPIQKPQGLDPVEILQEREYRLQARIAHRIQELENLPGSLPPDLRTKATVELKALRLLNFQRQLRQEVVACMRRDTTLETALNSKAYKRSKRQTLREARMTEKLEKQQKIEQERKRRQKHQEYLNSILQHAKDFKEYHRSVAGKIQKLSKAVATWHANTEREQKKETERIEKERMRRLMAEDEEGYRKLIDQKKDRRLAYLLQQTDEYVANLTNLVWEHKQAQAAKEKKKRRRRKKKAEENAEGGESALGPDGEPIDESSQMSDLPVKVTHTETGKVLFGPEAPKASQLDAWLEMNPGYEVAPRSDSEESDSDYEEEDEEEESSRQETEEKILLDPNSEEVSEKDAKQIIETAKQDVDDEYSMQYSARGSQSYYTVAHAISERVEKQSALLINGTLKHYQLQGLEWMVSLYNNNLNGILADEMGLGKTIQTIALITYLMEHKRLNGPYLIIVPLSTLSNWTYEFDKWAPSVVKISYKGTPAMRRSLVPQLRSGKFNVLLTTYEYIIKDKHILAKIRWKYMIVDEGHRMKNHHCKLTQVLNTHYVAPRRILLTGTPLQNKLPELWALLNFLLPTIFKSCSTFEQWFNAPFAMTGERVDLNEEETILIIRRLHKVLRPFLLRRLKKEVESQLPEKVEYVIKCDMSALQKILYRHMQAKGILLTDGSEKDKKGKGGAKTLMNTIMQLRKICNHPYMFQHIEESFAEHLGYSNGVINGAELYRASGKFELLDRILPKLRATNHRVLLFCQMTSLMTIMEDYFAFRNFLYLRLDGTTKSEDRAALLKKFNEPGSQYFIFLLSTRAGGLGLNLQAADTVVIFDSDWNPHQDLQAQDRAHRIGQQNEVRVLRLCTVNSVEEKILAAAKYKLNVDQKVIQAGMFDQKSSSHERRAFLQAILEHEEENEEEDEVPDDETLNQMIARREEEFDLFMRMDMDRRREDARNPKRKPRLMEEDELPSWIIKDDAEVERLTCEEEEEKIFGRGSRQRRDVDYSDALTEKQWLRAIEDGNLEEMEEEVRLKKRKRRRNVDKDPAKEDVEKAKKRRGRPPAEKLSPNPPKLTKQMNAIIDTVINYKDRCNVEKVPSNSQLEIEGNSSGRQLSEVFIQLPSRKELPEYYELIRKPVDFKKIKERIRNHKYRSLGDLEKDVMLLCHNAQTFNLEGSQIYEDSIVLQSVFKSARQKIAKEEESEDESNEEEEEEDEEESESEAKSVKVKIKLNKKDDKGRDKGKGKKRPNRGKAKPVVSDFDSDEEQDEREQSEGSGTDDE

DC50	SMILES
20 nM	Cc1ncsc1-c1ccc([C@H](CCCN2CCC(c3cc4c(cc3OCCOCCN3CCOCC3)n3c5cccc(Br)c5c(=O)nc3n4C3CCCC3)CC2)NC(=O)[C@@H]2C[C@@H](O)CN2C(=O)[C@@H](NC(=O)C2(F)CC2)C(C)(C)C)cc1 [Compound 42z]

Target: T2, SMARCA4 (Homo sapiens, UniProt P51532)
T2 construct: endogenous in cells; host or cells: RKO cells (CRL-2577, ATCC)
Experiment: SMARCA4 degradation analysis by imaging in RKO cells (DC50 A4)
Assay type: cell-based
Conditions: tables 69, 70, 73, 76-78
Protocol: as §1, §2, §3

T2 sequence (P51532 whole entry): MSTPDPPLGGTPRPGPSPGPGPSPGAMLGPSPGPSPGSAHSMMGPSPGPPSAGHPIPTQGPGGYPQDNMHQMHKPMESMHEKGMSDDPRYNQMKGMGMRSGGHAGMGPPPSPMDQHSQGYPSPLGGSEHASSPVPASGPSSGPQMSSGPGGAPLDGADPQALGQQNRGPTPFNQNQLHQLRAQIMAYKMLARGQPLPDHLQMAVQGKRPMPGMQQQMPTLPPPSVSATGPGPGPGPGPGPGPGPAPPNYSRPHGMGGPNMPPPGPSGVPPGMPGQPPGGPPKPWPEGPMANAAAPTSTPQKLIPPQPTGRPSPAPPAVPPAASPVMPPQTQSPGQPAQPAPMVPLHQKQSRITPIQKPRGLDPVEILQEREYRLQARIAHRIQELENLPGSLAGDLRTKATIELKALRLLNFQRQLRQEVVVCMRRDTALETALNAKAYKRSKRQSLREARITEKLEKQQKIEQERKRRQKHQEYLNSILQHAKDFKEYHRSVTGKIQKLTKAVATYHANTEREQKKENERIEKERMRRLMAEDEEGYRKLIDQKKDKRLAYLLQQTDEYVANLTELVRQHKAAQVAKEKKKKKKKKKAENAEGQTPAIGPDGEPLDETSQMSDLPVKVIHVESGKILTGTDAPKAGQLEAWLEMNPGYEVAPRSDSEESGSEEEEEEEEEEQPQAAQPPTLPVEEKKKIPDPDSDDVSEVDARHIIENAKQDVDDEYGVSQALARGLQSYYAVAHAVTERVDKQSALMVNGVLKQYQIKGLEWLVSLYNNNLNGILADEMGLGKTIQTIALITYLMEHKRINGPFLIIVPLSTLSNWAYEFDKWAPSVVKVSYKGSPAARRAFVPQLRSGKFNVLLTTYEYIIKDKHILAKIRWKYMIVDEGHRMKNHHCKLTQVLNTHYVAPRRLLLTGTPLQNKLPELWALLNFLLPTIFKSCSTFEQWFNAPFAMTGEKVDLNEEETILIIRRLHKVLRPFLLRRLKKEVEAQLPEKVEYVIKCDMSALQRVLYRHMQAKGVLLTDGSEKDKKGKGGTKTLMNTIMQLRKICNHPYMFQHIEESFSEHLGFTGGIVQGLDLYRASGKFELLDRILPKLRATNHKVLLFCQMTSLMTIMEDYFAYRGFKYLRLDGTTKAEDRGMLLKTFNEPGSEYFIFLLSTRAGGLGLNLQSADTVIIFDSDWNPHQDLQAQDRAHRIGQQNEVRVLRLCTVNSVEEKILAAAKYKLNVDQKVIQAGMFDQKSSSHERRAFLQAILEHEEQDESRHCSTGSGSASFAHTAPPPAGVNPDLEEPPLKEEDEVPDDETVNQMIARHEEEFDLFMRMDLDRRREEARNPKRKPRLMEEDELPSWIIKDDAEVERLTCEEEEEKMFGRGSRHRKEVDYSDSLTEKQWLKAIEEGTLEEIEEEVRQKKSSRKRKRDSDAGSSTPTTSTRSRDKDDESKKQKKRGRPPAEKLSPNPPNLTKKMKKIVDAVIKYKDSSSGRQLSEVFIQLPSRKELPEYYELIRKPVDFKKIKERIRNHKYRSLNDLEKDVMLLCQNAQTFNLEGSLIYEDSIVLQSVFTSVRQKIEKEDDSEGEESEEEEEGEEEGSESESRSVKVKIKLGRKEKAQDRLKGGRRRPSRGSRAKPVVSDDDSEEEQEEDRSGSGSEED

DC50	SMILES
41 nM	Cc1ncsc1-c1ccc([C@H](CCCN2CCC(c3cc4c(cc3OCCOCCN3CCOCC3)n3c5cccc(Br)c5c(=O)nc3n4C3CCCC3)CC2)NC(=O)[C@@H]2C[C@@H](O)CN2C(=O)[C@@H](NC(=O)C2(F)CC2)C(C)(C)C)cc1 [Compound 42z]

Target: T3, SMARCA2BD (Homo sapiens, UniProt P51531)
T3 construct: the SMARCA2BD prepared at 0.5-0.7 mg/mL in coupling buffer
Experiment: Binary SMARCA2 binding affinity determination (A2 binary): SMARCA2 SPR binding experiments
Conditions: not given
Protocol: Binary SMARCA2 Binding Affinity Determination (A2 Binary [nM]):
SMARCA2 SPR Binding Experiments
SPR experiments were performed on Biacore 8K or T200 instruments (GE Healthcare). Immobilization of target protein was carried out at 25° C. on a CM5 chip using amine coupling (EDC/NHS, GE Healthcare) in HBS-P+ running buffer, containing 2 mM TCEP, pH 7.4. […] The surface was deactivated using 1 M ethanolamine.
All interaction experiments were performed at 6° C. in running buffer containing 20 mM TRIS, 150 mM potassium chloride, 2 mM magnesium chloride, 2 mM TCEP, 0.005% TWEEN 20, 1% dimethyl sulfoxide; pH 8.3. Sensorgrams from reference surfaces and blank injections were subtracted from the raw data prior to data analysis using Biacore T200 or Biacore 8K evaluation software. Sensorgrams recorded at different compound concentrations in multi-cycle experiments were fitted using a 1:1 interaction model, with a term for mass-transport included.

T3 sequence (P51531 1373-1493 isoform P51531-2 limits assumed): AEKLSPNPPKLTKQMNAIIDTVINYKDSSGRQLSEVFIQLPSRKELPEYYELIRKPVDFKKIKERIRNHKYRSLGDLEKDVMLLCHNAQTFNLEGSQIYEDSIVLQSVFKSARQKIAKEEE

SMILES	Kd
O=c1nc2n(C3CCCC3)c3cc(C4CCNCC4)ccc3n2c2cccc(Br)c12 [Compound 28a, 4-bromo-7-cyclopentyl-9-(4-piperidyl)benzimidazolo[1,2-a]quinazolin-5-one]	48 nM

Same assay, conditions: binary SMARCA2 binding affinity; SPR at 6° C., pH 8.3; read-out: A2 binary

Kd	SMILES
45 nM	CCn1c2cc(C3CCNCC3)c(OCCOCCOC)cc2n2c3cccc(Br)c3c(=O)nc12 [Compound 28k]
29 nM	N[C@H]1CC[C@H](c2ccc3c(c2)n(C2CCCC2)c2nc(=O)c4c(Br)cccc4n32)CC1 [Compound 28m]
40 nM	C[C@H]1CNCCN1c1ccc2c(c1)n(C1CCCC1)c1nc(=O)c3c(Br)cccc3n21 [Compound 28o]
55 nM	C[C@@H]1CNCCN1c1ccc2c(c1)n(C1CCCC1)c1nc(=O)c3c(Br)cccc3n21 [Compound 28p]
44 nM	O=c1nc2n(C3CCCC3)c3cc(N4CCNCC4)ccc3n2c2cccc(Br)c12 [Compound 28r]
70 nM	O=c1nc2n(C3CCCC3)c3cc(N4C[C@@H]5C[C@H]4CN5)ccc3n2c2cccc(Br)c12 [Compound 28s]
45 nM	O=c1nc2n(C3CCCC3)c3cc(C4CCNCC4)c(OC[C@@H]4CCCO4)cc3n2c2cccc(Br)c12 [Compound 28v]
50 nM	COCCOCCOc1cc2c(cc1C1CCNCC1)n(C1CCCC1)c1nc(=O)c3c(Br)cccc3n21 [Compound 28y]
541 nM	CC(C)(C)OC(=O)N1CCC(c2ccc3c(c2)n(C2CCCC2)c2nc(=O)c4c(N)cccc4n32)CC1 [Compound 30a]
157 nM	CC(C)(C)OC(=O)Oc1cc2c(cc1C1CCN(C(=O)OC(C)(C)C)CC1)n(C1CCCC1)c1nc(=O)c3c(Br)cccc3n21 [Compound 33a]
